Experimental findings from US20230172940A1, “METHODS OF EXTENDING LIFESPAN BY ADMINISTERING FERROPTOSIS INHIBITORS” (COLLABORATIVE MEDICINAL DEVELOPMENT, LLC, priority 2020, published 2023) are described below.

Assay [1] deals with OP50 E. coli. The assay is described as follows: Bacterial growth assay (OD600). The format is cell-based, Escherichia coli. Conditions: after 12 hours, 37° C. On the procedure: The effects of test compounds on growth of the OP50 E. coli feed was assayed using optical density at 600 nm (OD600). Using standard microtitre plates, replicate wells of 200 μL of sterile Luria broth were inoculated with 2 μL of an overnight OP50 culture in addition to the stated final concentrations of ampicillin (Amp), Lip-1 and SIH. OD600 measures were taken after 12 hours in an EnSpire (PerkinElmer) spectrophotometric plate reader preset to 37° C., with 30 sec of 200 rpm orbital shaking every 10 minutes.
Data was averaged across duplicate experiments, each with eight replicate wells per treatment where a baseline of Luria broth without an inoculate was subtracted.

The subject of assay [2] is E. coli (strain OP50). In words: Disk diffusion test. It counts as cell-based, Escherichia coli. The text has this:
C. elegans are bacteriophores and the E. coli (OP50) monoxenic diet can colonize the pharynx and intestine, resulting in death. Consequently, antibiotics are known to extend C. elegans lifespan. In addition, iron chelating compounds, such as EDTA have been reported to have antibiotic properties.

Assay [3] has as its system C. elegans. The assay is described as follows: Body size analysis. The format is in vivo, Caenorhabditis elegans. Here is the method:
[…] The treatment plates included NGA with 0.5% (v/v) DMSO (vehicle control, Ctl), 250 μM SIH, or 200 μM Lip-1 (as described above).
Cohorts of approximately 100 animals were transferred into a 1.5 ml centrifuge tube containing 400 μL S-basal. Following a brief centrifugation excess S-basal was removed leaving the animals suspended in 50 μL. Animals were euthanized and straightened by a 15 second exposure to 60° C. (using a heated water bath). Samples were then mounted between glass slides and a cover slip and immediately imaged. Micrographs were collected using a Leica M80 stereomicroscope and Leica DFC290 HD 3 MP) digital camera. Pixel sizes were defined using a calibrated 25 μm grid slide (Microbrightfield, Inc). Size and shape metrics were extracted from brightfield images were analyzed using the WormSizer plugin for ImageJ.
Data of estimated adult body length and volume were initially assessed for normality using a D'Agostino & Pearson test. Based on this analysis a nonparametric Kruskal-Wallis Analysis of Variance (ANOVA) was performed followed by a Dunn-Šidák test for multiple comparisons (as implemented by Prism v7.0a, GraphPad Software). There was a significant difference between body length (H(10)=432.6, p<0.0001) amongst the groups measured.

Assay [4] concerns Hydroxynonenal (4-HNE) protein adducts. In words: Lipid peroxidation: 4-HNE protein adducts (immunoblot). Particulars: qualitative. It counts as in vivo, Caenorhabditis elegans. Here is the method: Analysis of Hydroxynonenal (4-HNE) protein adducts was also used as a proxy for lipid peroxidation. Duplicate samples of 50 and 200 worms were collected and washed twice in S-basal^o pelleted by centrifugation and the supernatant discarded. These samples (^˜30 μL) were frozen in liquid-N2 and stored at −80° C. until needed. To each sample an 10 μL 4× Bolt LDS sample buffer (Invitrogen) and 3 μL TCEP (Invitrogen) was added and the sample heated to 95° C. for 10 min. Lysates were loaded onto NuPAGE™ 4-12% Bis-Tris acrylamide gels (1.0 mm^o 10-well^o Invitrogen)^o electrophoresed with MES running buffer and then transferred onto 0.45 μm PVDF membrane by electroblot using a Mini Blot module (Invitrogen). 4-HNE protein adducts were detected by an anti 4-HNE protein adduct antibody (1:2000^o AB5605^o Millipore) in Tris-buffer saline with 5% skim milk^o and ECL (GE Healthcare). The membranes were stripped using a 1× ReBlot Strong Antibody Stripping Solution (Merck) for 15 min^o reprobed for tubulin using an anti-Tubulin antibody (1:10^o000^oT6074^o Sigma-Aldrich).

The test system of assay [5] is C. elegans strain TJ1060. In words: Parametric survival models (Weibull frailty), goodness of fit, combining replicates, meta-analysis. The arrangement: species or system Caenorhabditis elegans. On the procedure: Parametric survival models with Weibull baseline hazards and Gamma frailty were fitted to replicate-specific data using the R package flexsurv. A likelihood ratio test was used to compare models that assume simple temporal rescaling to models that allow varying degrees of departure from temporal rescaling. The best model for each replicate was selected using a likelihood ratio test and the goodness of fit (GOF) of the best model is evaluated using a chi-square GOF test. To combine data across different replicates, we performed fixed-effect and random-effect meta-analyses for each parameter in the best model. Briefly, the fixed-effect meta-analysis estimates were derived using Inverse Variance Weighting (IVW) in which the estimates from each replicate were weighted by the inverse of their variance estimates. The meta-analysis estimates were then calculated simply as the weighted average of estimates from all replicates. The fixed-effect meta-analysis assumes that there is insignificant variation between the estimates of the same parameter across different replicates. The random-effect meta-analysis also derives the estimates by assigning weights to estimates from each replicate, but in this case the weights take into account the variation of estimates across replicates. […]

SMILES strings stand for the structures.

On to `O=C(N/N=C/c1ccccc1O)c1ccncc1` [SIH, Salicylaldehyde isonicotinoyl hydrazone], for which the “growth of OP50 E. coli (OD600)” value in assay [1] is “neither Lip-1 nor SIH suppressed bacterial growth”. Further, the “inhibition of E. coli (strain OP50) growth” value in assay [2] is “no evidence for inhibition”. Further, the body volume entry in assay [3] (Day 4) is “greater volume than both control and Lip-1 treated worms”. The “body length, mean±SD” value in assay [3] (Day 8, control 1440±123 μm, p<0.001) is reported as 1696±64 μm. For the same compound, in assay [3] (after 4 days and 8 days of intervention), the “body length versus similarly aged controls” value is given as “significantly longer”. Besides, the “body volume over time” value in assay [3] (in vivo) is “increase in body volume between Days 1 and 4, but not thereafter”. Moreover, the “increase in 4-HNE protein adducts with age” value in assay [4] is given as “suppressed”. Moreover, the “risk of death (hazard) in early adulthood” value in assay [5] (compared to control populations, rose precipitously in late life) is “greatly reduced”.
Take `Clc1cccc(CNC2=Nc3ccccc3NC23CCNCC3)c1` [Lip-1, N-[(3-chlorophenyl)methyl]-spiro[piperidine-4,2′(1′H)-quinoxalin]-3′-amine]: the “growth of OP50 E. coli (OD600)” value in assay [1] is “neither Lip-1 nor SIH suppressed bacterial growth”. Further, the “inhibition of E. coli (strain OP50) growth” value in assay [2] was “no evidence for inhibition”. In addition, the length or volume entry in assay [3] (in vivo) is reported as “no effect on length or volume”. Further, in assay [4], the “increase in 4-HNE protein adducts with age” value was “suppressed”. Moreover, the “rate of mortality in the post-reproductive period (late-life)” value in assay [5] was “markedly reduced”.
